Two molecules from publication PMC7948405, “Small-molecule control of neurotransmitter sulfonation” (The Journal of Biological Chemistry, 2020) can be followed below.

For test [1], the target named is T1, SULT1A3 (Homo sapiens, UniProt P0DMM9).
T1 construct: E. coli–optimized SULT coding regions were inserted into a pGEX-6P expression vector; N-His/GST/MBP triple tag (PreScission-cleavable) (N, cleaved yes); made in house; host or cells: E. coli BL21(DE3)
In words: Initial-rate inhibition of SULT-catalyzed 1-HP sulfonation. As to conditions: parentheses 1 SD; for Ki: in vitro initial rate, 1-HP 5.0 μM, PAPS 0.50 mM, pH 7.5, 25 °C; for % Inhibition at saturation: in vitro, saturating inhibitor. It is filed as biochemical. As to the method:
Figure 3 Affinity, specificity, and binding sites of CMP12 and CMP13. A and B, inhibition studies. Initial rates of SULT-catalyzed 1-HP sulfonation are plotted as a function of inhibitor concentration. Rates are normalized to the rate observed in the absence of the inhibitor. Inhibition of the major SULT isoforms found in the brain and liver were tested. SULT activity was monitored via the sulfonation-dependent change in 1-HP fluorescence (λex = 325 nm, λem = 375 nm ([15], [28])). Reaction conditions were as follows: SULT (20 nM, active sites), PAPS (0.50 mM, 17 × Km), 1-HP (5.0 μM, 61 × Km), KPO4 (50 mM), pH 7.5, 25(±2) °C. Less than 5% of the concentration-limiting substrate was converted to the product at reaction endpoints. Each data point is the average of three independent determinations. The lines passing through the data are least-squares fits to a noncompetitive partial-inhibition model (see Experiment and Initial rate). C, CMP8 competes with CMP12 and CMP13. Initial rates at saturating CMP12 or CMP13 are plotted as a function of CMP8 concentration. Rates are normalized to the rate observed in the absence of the inhibitor. […] Lines passing through the data are the predictions of a noncompetitive partial-inhibition model in which inhibitors compete for the same site (see Experiment and Binding competition). SULT, sulfotransferase; PAP, 3′-phosphoadenosine-5′-phosphate; SULT1A3, sulfotransferase 1A3; PAPS, 3’-phosphoadenosine 5’-phosphosulfate; 1-HP, 1-hydroxypyrene.
Initial-rate inhibition parameters were obtained from classical initial-rate studies ([16], [28], [43]). Reactions were initiated by addition of PAPS (0.50 mM, 17 × Km) to a solution containing SULT1A3 (20 nM, active sites), inhibitor (0.2–20 × Ki), 1-HP (5.0 μM, 60 × Km), and KPO4 (50 mM), pH 7.5, 25(±2) °C. Reaction progress was monitored via the fluorescence change associated with 1-HP sulfonation (λex = 325 nm, λem = […] ([15], [28])). Less than 5% of the 1-HP was converted to the product at reaction endpoints. Ki and kcat inh (i.e., turnover at saturating inhibitor and substrate) were obtained by fitting to the following quadratic equation for noncompetitive, partial inhibition at [S] >> Km ([44]):(7) v/Vmax=([Etot]+[ESI](α-1))/[Etot] where(8) α=kcat inh/kcat and(9) [ESI]=[([E]tot+[I]tot+Ki)−[([E]tot+[I]tot+Ki)^2−4·[I]tot·[E]tot]^1/2]/2

The target in test [2] is T1, SULT1A3. In words: Equilibrium binding of CMP13 to SULT1A3 complexes (intrinsic fluorescence). The text has this:
(§1) Figure 4 The inhibition mechanism. A, equilibrium binding. Binding was monitored via ligand-induced changes in SULT1A3 intrinsic fluorescence (λex = 290 nm, λem = 335 nm). […] Each dot represents the average of three independent titrations. Lines passing through the data represent the outcomes predicted by least-squares fitting of the averaged data to a single-binding-site model. B, representative PAP-binding reaction. PAP binding was monitored using a stopped-flow fluorimeter (λex = 290 nm, λem ≥ 330 nm (cutoff filter)). Reactions were initiated by rapidly mixing (1:1 v/v) a solution containing SULT1A3 (30 nM, dimer), CMP13 (1.0 μM, 100 × Kd), Tam (160 μM, 200 × Kd), KPO4 (50 mM), pH 7.5, 25(±2) °C, with a solution that was identical except that it lacked SULT1A3 and contained PAP (2.0 μM). The average of five independent progress curves shown and the kobs was obtained by fitting the data to a single exponential. C, pre–steady-state binding. PAP binding was monitored as described for panel B. Reactions were initiated by mixing (1:1 v/v) a solution containing SULT1A3 (30 nM, dimer), CMP13 [0 μM (black dots) or 1.0 μM, 100 × Kd (red and blue dots)], Tam [0 μM (black and blue dots) or 160 μM, 200 × Kd (red dots)], KPO4 (50 mM), pH 7.5, 25(±2) °C, with a solution that was identical except that it lacked SULT1A3 and contained PAP at twice the indicated concentrations. Each kobs value was determined in triplicate, and the averaged values are shown. kon and koff are given, respectively, by the slopes and intercepts obtained from linear least-squares fitting of the kobs vs [PAP] plot. PAP, 3′-phosphoadenosine-5′-phosphate; SULT1A3, sulfotransferase 1A3; Tam, 4-hydroxy-tamoxifen.
CMP13 binding to SULT1A3 was monitored via binding-induced changes in SULT1A3 intrinsic fluorescence (λex= 290 nm, λem= 335 nm ([17])). […] PAP binding was determined using the same protocol except that [PAP] was varied and CMP13 was 1.0 μM (100 × Ki). Titrations were performed in triplicate. Data were averaged and least-squares fit using a model that assumes a single binding site per monomer.

Test [3] addresses T1, SULT1A3. As to the kind of experiment: Pre-steady-state (stopped-flow fluorescence) binding of PAP to SULT1A3 complexes. To be noted: E·CMP13 vs E.
Text: as §1
To resolve this uncertainty, PAP on- and off-rate constants for a series of open and closed complexes were determined using stopped-flow fluorescence. A representative binding reaction can be seen in Fig. 4B. The binding reactions were pseudo-first order in [PAP], and kobs values were obtained by fitting reaction progress curves to a single-exponential equation. On- and off-rate constants (see Table 3) are given by the plot slopes and intercepts.
Pre–steady-state binding of PAP to SULT1A3 was monitored via ligand-induced changes in SULT1A3 fluorescence using an Applied Photophysics SX20 stopped-flow spectrofluorometer. Fluorescence was measured at λex = 290 nm and λem ≥ 330 nm (using a cutoff filter). […] All reactions were pseudo first order with respect to [PAP]. kobs values, determined in triplicate at each PAP concentration, were obtained by least-squares fitting the average of five progress curves to a single-exponential equation. kon and koff, obtained by linear least-squares fitting, are given by the slopes and intercepts of four-point kobs-vs-[PAP] plots.

SMILES strings stand for the structures.

T1 sequence (P0DMM9 whole entry): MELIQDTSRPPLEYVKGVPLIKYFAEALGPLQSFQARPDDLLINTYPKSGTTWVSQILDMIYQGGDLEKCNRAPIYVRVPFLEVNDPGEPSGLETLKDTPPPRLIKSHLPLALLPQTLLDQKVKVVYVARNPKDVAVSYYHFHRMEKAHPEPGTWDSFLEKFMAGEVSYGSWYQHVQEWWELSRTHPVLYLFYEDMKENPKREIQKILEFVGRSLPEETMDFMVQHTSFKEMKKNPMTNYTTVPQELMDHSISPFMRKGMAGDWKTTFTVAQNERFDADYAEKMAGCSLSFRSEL

As for `CC(C)Cc1ccc2cc(CCC(N)=O)ccc2n1` [CMP12], at SULT1A3 [1], the Ki stood at 70 nM and the “% Inhibition at saturation” value is recorded as 83 (4) %.

Consider `CC(C)Cc1ccc2cc(/C=C/C(N)=O)cnc2n1` [CMP13], for which the Kd on SULT1A3 [2] (complex E (unliganded, cap-open)) was determined as 130 nM; on SULT1A3 [2] (complex E·PAP (cap-closed), PAP 350 μM) it was 11 nM; on SULT1A3 [2] (complex E·PAP·Tam (cap held open), PAP 350 μM, Tam 160 μM) it was 133 nM. The “fold tighter binding to cap-closed E·PAP than to open form E” value on SULT1A3 [2] (ratio of Kd values) worked out at 12 fold. For the same molecule, the Ki at SULT1A3 [1] is 11 nM. The “% Inhibition at saturation” value at SULT1A3 [1] is 98 (2) %. Besides, at SULT1A3 [3], the “fold decrease of the PAP off-rate constant caused by inhibitor” value is ~14 fold.

One may read the Ki as a measure of affinity in units of concentration, obtained from inhibition or displacement. As usually defined, the Kd is a measure of binding affinity in units of concentration.
